Results from patent US11071701B2, “Medicament and cosmetic composition comprising resorcinol derivatives” (Symrise AG, priority 2016, dated 2021).

Key:
[1] = test system: Human epidermal melanoma cells A375; experiment: Visible light induced hyperpigmentation in vitro (melanin quantification); type: cell-based; details: for Inhibition vs. visible light induced / Melanin: visible light 480 J/cm2; for Melanin: treated 48 h prior to and past irradiation; for inhibition of visible light induced hyperpigmentation (in words): summary of Table 1
Method: Human epidermal melanoma cells A375 were cultured in 6-well plates. The cells were exposed to visible light (480 J/cm2) with Hydrosun 750 equipped with KG1 filter. 48 h prior to and past to the irradiation the cells were treated with test compounds in non-cytotoxic concentrations. Melanocytes were lysed in a solution of NaOH. Melanin was quantified by measurement of absorbance at 405 nm and calculation based on a melanin standard curve.

[2] = test system: ex vivo human skin explants; experiment: Melanin formation after visible light irradiation on ex vivo human skin; details: visible light 480 J/cm2; for % of melanin: Fontana-Masson stain, image analysis
Method: The below formulations were applied on ex vivo human skin explants from abdominal surgery of a donor with phototype IV (Fitzpatrick scale). 48 h after the formulations were removed with a cotton pad. Skin explants were exposed to visible light (480 J/cm2) with Hydrosun 750 equipped with KG1 filter. Formulations were reapplied afterwards. 48 h later skin sections were prepared and melanin was stained by Fontana-Masson stain. Quantification of melanin was done by image analysis.

## CCCCc1ccc(O)cc1O [4-Butylresorcinol, 4-butyl resorcinol]
[1]; concentration 0.0000316 %
  Inhibition vs. visible light induced: 58%
  Melanin: 2.3136 ± 0.6518 µg
[1]; concentration 0.0001000 %
  Inhibition vs. visible light induced: 100%
  Melanin: 1.8593 ± 0.5365 µg
[1]; concentration 0.0003160 %
  Inhibition vs. visible light induced: 183%
  Melanin: 0.9849 ± 0.0738 µg
[1]
  inhibition of visible light induced hyperpigmentation (in words): significantly inhibit

## CCCCCCc1ccc(O)cc1O [4-Hexylresorcinol, 4-hexyl resorcinol]
[1]; concentration 0.000005 %
  Inhibition vs. visible light induced: 91%
  Melanin: 1.9616 ± 0.2899 µg
[1]; concentration 0.000015 %
  Inhibition vs. visible light induced: 102%
  Melanin: 1.8407 ± 0.1988 µg
[1]; concentration 0.000050 %
  Inhibition vs. visible light induced: 166%
  Melanin: 1.1668 ± 0.1312 µg
[1]
  inhibition of visible light induced hyperpigmentation (in words): significantly inhibit

## CC(c1ccccc1)c1ccc(O)cc1O (stereo not shown) [SymWhite ® 377, phenylethyl resorcinol]
[1]; concentration 0.000068 %
  Inhibition vs. visible light induced: 79%
  Melanin: 0.5688 ± 0.0793 µg
[1]; concentration 0.000210 %
  Inhibition vs. visible light induced: 86%
  Melanin: 0.5280 ± 0.0494 µg
[1]; concentration 0.000680 %
  Inhibition vs. visible light induced: 100%
  Melanin: 0.4598 ± 0.1024 µg
[1]
  inhibition of visible light induced hyperpigmentation (in words): significantly inhibit
[2]; 0.2% in formulation applied to skin explants (phototype IV)
  % of melanin: 42.48 ± 2.6%
[2]; 0.2% in formulation applied to skin explants
  Inhibition vs Placebo: 67.5%
[2]; 0.5% in formulation applied to skin explants (phototype IV)
  % of melanin: 25.91 ± 1.2%
[2]; 0.5% in formulation applied to skin explants
  Inhibition vs Placebo: 125.7%
